We go through six compounds from the supplement of paper PMC11551840.

Molecules are shown by their SMILES.

Assay in all cases: IC50 (cell viability, 72 h) (ln(µM))
One assay concerns BICR10. As for the experimental part:
(§1)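 Discovery screen of OSCC cell lines in 1,536-well plates. Cells were treated 24 h after seeding with 7 concentrations spanning a 1,000-fold half-log range for 72 h, and viability was read by CellTiter-Glo 2.0 and normalised to DMSO (1) and medium-only (0) controls. IC50 comes from a two-parameter logistic nonlinear mixed-effects fit and is reported as natural log of IC50 in µM.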

The subject of another assay is HO-1-u-1. Here is the method: as §1
The next assay concerns PE-CA-PJ15. As for the experimental part:
as §1

For the next assay, the system named is ORL-115. Here is the method: as §1
In another assay the test system is SAS. As for the experimental part: as §1
For the next assay, the system named is SCC-9. Here is the method:
as §1

In the next assay the test system is ORL-48. Here is the method:
as §1

The next assay concerns ORL-207. Here is the method:
as §1

The subject of the next assay is ORL-166. As for the experimental part:
as §1

Another assay deals with ORL-156. As for the experimental part:
as §1

In another assay the test system is ORL-215. Here is the method:
as §1

A further assay concerns ORL-214. Here is the method:
as §1

A further assay deals with ORL-174. As for the experimental part: as §1
Another assay has as its system HSC-4. Here is the method:
as §1

A further assay has as its system ORL-153. Here is the method:
as §1

In the next assay the test system is ORL-150. As for the experimental part:
as §1

A further assay relates to ORL-195. As for the experimental part: as §1
A further assay concerns ORL-188. As for the experimental part:
as §1

Another assay relates to ORL-136. As for the experimental part:
as §1

A further assay concerns HSC-2. Here is the method:
as §1

Another assay deals with ORL-204. As for the experimental part: as §1

On to `CN[C@@H]1C[C@H]2O[C@@](C)([C@@H]1OC)n1c3ccccc3c3c4c(c5c6ccccc6n2c5c31)C(=O)NC4` [Staurosporine], for which the “IC50 (ln)” value in the assay on BICR10 is -2.87; in the assay with HO-1-u-1, -3.13; in the assay with PE-CA-PJ15, -1.61; with ORL-115, -2.54; in the assay with SAS, -1.77; in the assay on SCC-9, -1.81. For the same compound, the “IC50 (ln)” value is -3.62 in the assay with ORL-48; -4.38 in the assay with ORL-207; -4.99 in the assay with ORL-166; -3.75 with ORL-156; -2.53 in the assay with ORL-215; -4.45 with ORL-214. Moreover, the “IC50 (ln)” value in the assay on ORL-174 was -4.98; in the assay on HSC-4, -2.01; in the assay on ORL-153, -5.03; with ORL-150, -2.55; with ORL-195, -2.23; in the assay on ORL-188, -4.74. Besides, the “IC50 (ln)” value in the assay with ORL-136 is -1.49; in the assay on HSC-2, -3.4; in the assay on ORL-204, -2.94.

As to `CN(C)C/C=C/C(=O)Nc1ccc(C(=O)Nc2cccc(Nc3ncc(Cl)c(-c4c[nH]c5ccccc45)n3)c2)cc1` [THZ1], the “IC50 (ln)” value in the assay with BICR10 is -1.1; in the assay with HO-1-u-1, -2.66; in the assay with PE-CA-PJ15, -1.3; in the assay on ORL-115, -1.28; in the assay on SAS, -1.01; in the assay on SCC-9, -0.456. For the same compound, the “IC50 (ln)” value is -2.1 with ORL-48; -1.93 in the assay on ORL-207; -2.72 with ORL-166; -2.4 in the assay on ORL-156; -2.18 in the assay with ORL-215; -2.58 in the assay with ORL-214. In addition, the “IC50 (ln)” value with ORL-174 was -2.27; with HSC-4, -0.322; with ORL-153, -2.01; in the assay on ORL-150, -1.93; in the assay with ORL-195 it was -2.48; in the assay with ORL-188, -2.18. Also, the figures for the “IC50 (ln)” value in the assay on ORL-136, in the assay with HSC-2 and in the assay on ORL-204 were -0.297, -2.07 and -1.9, respectively.

`CC[C@@]1(O)C(=O)OCc2c1cc1n(c2=O)Cc2cc3c(CN(C)C)c(O)ccc3nc2-1` [Topotecan]: the “IC50 (ln)” value was -0.563 in the assay with BICR10; -0.253 in the assay with HO-1-u-1; -0.416 in the assay on PE-CA-PJ15; -0.116 with ORL-115; -2.78 with SAS; 1.79 in the assay on SCC-9. The “IC50 (ln)” value was -0.589 with ORL-48; -1.86 in the assay with ORL-207; -1.82 with ORL-166; -0.763 in the assay on ORL-156; -0.991 with ORL-215; -2.24 in the assay on ORL-214. The “IC50 (ln)” value is -1.41 in the assay with ORL-174; -1.66 in the assay with HSC-4; -1.49 in the assay with ORL-153; -1.36 in the assay with ORL-150; -0.561 with ORL-195; -2.17 in the assay on ORL-188. Further, the results for the “IC50 (ln)” value with ORL-136, in the assay with HSC-2 and in the assay on ORL-204 were 1.32, -2.93 and -1.8, respectively.

Consider `CC[C@]1(O)C[C@@H]2CN(CCc3c([nH]c4ccccc34)[C@@](C(=O)OC)(c3cc4c(cc3OC)N(C)[C@H]3[C@@](O)(C(=O)OC)[C@H](OC(C)=O)[C@]5(CC)C=CCN6CC[C@]43[C@@H]65)C2)C1` [Vinblastine], for which the “IC50 (ln)” value was -5.52 in the assay on BICR10; 0.0626 in the assay on HO-1-u-1; -2.73 with PE-CA-PJ15; -3.39 in the assay on ORL-115; -2.06 in the assay with SAS; -1.75 with SCC-9. Also, the “IC50 (ln)” value in the assay on ORL-48 was -4.28; in the assay with ORL-207, -6.16; with ORL-166, -5.26; with ORL-156, -5.51; in the assay with ORL-215, -6; with ORL-214, -5.86. For the same compound, the “IC50 (ln)” value in the assay with ORL-174 was -3.94; in the assay with HSC-4, 0.489; in the assay on ORL-153 it was -5.08; with ORL-150, -7.11; in the assay on ORL-195, -3.12; in the assay with ORL-188, -4.52. The entries for the “IC50 (ln)” value with ORL-136, in the assay with HSC-2 and in the assay on ORL-204 were -0.44, -5.8 and -1.25, respectively.

With `CCC1=C[C@@H]2CN(C1)Cc1c([nH]c3ccccc13)[C@@](C(=O)OC)(c1cc3c(cc1OC)N(C)[C@H]1[C@@](O)(C(=O)OC)[C@H](OC(C)=O)[C@]4(CC)C=CCN5CC[C@]31[C@@H]54)C2` [Vinorelbine], the “IC50 (ln)” value in the assay with BICR10 was -3.91; in the assay on HO-1-u-1 it was -2.27; with PE-CA-PJ15 it was -2.05; in the assay with ORL-115 it was -3.17; with SAS it was -1.52; in the assay with SCC-9 it was -2.4. Besides, the “IC50 (ln)” value was -4.11 with ORL-48; -4.86 with ORL-207; -3.98 in the assay on ORL-166; -4.75 with ORL-156; -4.43 with ORL-215; -3.96 in the assay with ORL-214. Further, the “IC50 (ln)” value was -4 in the assay on ORL-174; -1.06 with HSC-4; -4.32 with ORL-153; -4.87 with ORL-150; -3.19 in the assay on ORL-195; -4.3 in the assay on ORL-188. For the same compound, the “IC50 (ln)” value in the assay with ORL-136 was -0.871; with HSC-2, -4.57; in the assay on ORL-204 it was -2.86.

`CC[C@@H]1C(=O)N(C)c2cnc(Nc3ccc(C(=O)N[C@H]4CC[C@H](N5CCN(CC6CC6)CC5)CC4)cc3OC)nc2N1C(C)C` [Volasertib]: the “IC50 (ln)” value in the assay with BICR10 is -2.43; with HO-1-u-1, -1.37; in the assay on PE-CA-PJ15, 0.264; with ORL-115, -2.17; with SAS, -0.561; in the assay with SCC-9, -0.541. The “IC50 (ln)” value is -1.36 with ORL-48; -2.9 with ORL-207; -2.71 with ORL-166; -2.61 with ORL-156; -2.84 in the assay with ORL-215; -1.65 in the assay with ORL-214. The “IC50 (ln)” value with ORL-174 was -2.1; with HSC-4 it was -0.173; with ORL-153 it was -2.22; in the assay on ORL-150, -3.61; with ORL-195, -1.33; in the assay with ORL-188, -2.92. Besides, the entries for the “IC50 (ln)” value in the assay with ORL-136, in the assay with HSC-2 and in the assay on ORL-204 were 2.12, -2.15 and -0.0575, respectively.
